Paper PMC7479175, “Selection of Potent Inhibitors of Soluble Epoxide Hydrolase for Usage in Veterinary Medicine” (Frontiers in Veterinary Science, 2020)
Where two headings read alike, the source gives them in different places.

Assays:
[1] = target: T1, sEH activity from liver cytosol of Pig (Sus scrofa, UniProt Q6Q2C2); test: sEH inhibition potency (IC50), radioactive assay with [3H]t-DPPO, liver cytosol; type: biochemical
T1 construct: The radioactive fluorescent assay was used with the liver crude extracts; from tissue; host or cells: pig liver cytosol (100,000 g supernatant)
T1 sequence (Q6Q2C2 1-555): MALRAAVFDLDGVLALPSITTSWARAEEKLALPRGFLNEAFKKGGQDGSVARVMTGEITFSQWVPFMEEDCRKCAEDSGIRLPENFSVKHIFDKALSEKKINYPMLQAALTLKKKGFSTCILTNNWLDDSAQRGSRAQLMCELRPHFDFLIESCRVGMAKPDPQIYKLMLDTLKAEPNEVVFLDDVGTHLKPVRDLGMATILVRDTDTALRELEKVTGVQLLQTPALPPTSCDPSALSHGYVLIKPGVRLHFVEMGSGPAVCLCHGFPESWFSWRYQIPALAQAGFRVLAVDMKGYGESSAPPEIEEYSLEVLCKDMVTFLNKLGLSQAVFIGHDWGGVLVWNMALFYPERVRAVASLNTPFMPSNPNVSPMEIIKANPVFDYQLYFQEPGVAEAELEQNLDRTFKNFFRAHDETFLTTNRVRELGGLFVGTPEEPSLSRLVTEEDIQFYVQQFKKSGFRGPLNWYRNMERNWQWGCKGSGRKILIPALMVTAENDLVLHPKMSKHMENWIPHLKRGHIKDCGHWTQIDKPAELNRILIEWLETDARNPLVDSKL
Text: (§1) Fresh liver tissues samples (5–30 g) were collected promptly after death from healthy adult cat, dog and horse euthanized for reasons unrelated to this study, and whose bodies were given to science by the owners in line with federal regulations and protocol approved by the Institutional Animal Care and Use Committee at University of California Davis. Similarly, tissues from the other animals tested herein were collected from healthy animals immediately after being slaughter at the university abattoir. Because no animals were directly used or killed for this study, sample collections were exempted from approval by the Institutional Animal Care and Use Committee of the University of California Davis and Michigan State University. […] The tissues were flash-frozen in liquid nitrogen following removal, and then kept at −80°C until used. After thawing on ice, the samples were homogenized in chilled sodium phosphate buffer (20 mM pH 7.4) containing 5 mM EDTA, 1 mM DTT and 1 mM PMSF (tissue weight:buffer volume ratio 1:4). These homogenates were centrifuged at 100,000 g for 60 min at 4°C. The supernatant (the cytosolic fraction) was separated from the pellet, aliquoted and flash frozen in liquid nitrogen, then kept frozen at −80°C until usage.
(§2) The IC50 values reported herein were determined using either a fluorescent based assay (CMNPC as substrate) for purified enzyme preparations or a radioactive based assay ([^3H]t-DPPO as substrate) for crude enzyme preparations ([20]). The fluorescent assay was used with the purified proteins. […] The substrate (CMNPC) was then added ([S]final = 5 μM). […] The radioactive […] assay was used with the liver crude extracts. Extracts were incubated with inhibitors ([I]final = 1–1,000 nM) at 30° C for 5 min in sodium phosphate buffer (pH 7.4) containing 0.1 mg/mL of BSA and 1% of DMSO, prior to substrate introduction ([^3H]t-DPPO [S]final: 50 μM; ~12,000 dpm/assay). The enzymes were incubated at 30°C for 10 min, and the reaction was quenched by the addition of 60 μL methanol and 200 μL isooctane, which extracts the remaining epoxide from the aqueous phase. […] Assays were performed in triplicate.

[2] = target: sEH activity from liver cytosol of Sheep (Ovis aries, UniProt A0ACI6PZ20); test: as above; type: biochemical
Text: as §1, §2

[3] = target: T2, sEH activity from liver cytosol of Hamster (Mesocricetus auratus, UniProt A0A1U7QV09); test: as above; type: biochemical; conditions: [3H]t-DPPO ([S]final = 5 μM) as substrate
T2 sequence (A0A1U7QV09 1-554): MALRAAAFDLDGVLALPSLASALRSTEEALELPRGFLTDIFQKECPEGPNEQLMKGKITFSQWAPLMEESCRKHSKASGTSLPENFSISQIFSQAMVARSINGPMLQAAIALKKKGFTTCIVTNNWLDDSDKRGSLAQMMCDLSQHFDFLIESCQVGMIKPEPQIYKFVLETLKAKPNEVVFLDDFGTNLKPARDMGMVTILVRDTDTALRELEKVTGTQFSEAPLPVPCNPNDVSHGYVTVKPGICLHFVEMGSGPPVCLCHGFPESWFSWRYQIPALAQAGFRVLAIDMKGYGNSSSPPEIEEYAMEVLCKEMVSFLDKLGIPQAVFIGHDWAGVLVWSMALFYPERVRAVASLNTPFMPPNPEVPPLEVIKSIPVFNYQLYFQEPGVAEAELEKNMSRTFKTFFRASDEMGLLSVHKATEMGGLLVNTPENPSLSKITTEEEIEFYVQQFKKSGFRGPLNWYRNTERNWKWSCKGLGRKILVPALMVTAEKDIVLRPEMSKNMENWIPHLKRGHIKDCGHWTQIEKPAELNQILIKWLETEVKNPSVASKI
Text: as §1, §2

Microsomal stability [4] = type: in vitro ADME, cat; conditions: for Stability (% without microsomes) Cat liver microsomes NADPH + / Stability (% without microsomes) Cat liver microsomes NADPH –: 1 μM inhibitor, microsomes 1 mg/mL, 37°C, 30 min, compound remaining, average ± SD (n = 3); for Stability (% without microsomes) Cat liver microsomes NADPH +: with NADPH; for metabolism in cat liver microsomes (in words): in the presence of NADPH
Description: (§3) The stability of the sEH inhibitors was determined using liver microsomes as described ([24]). […] After 30 min at 37°C, the reaction was stopped by the addition of one volume of methanol containing CUDA (200 nM) as surrogate. The amount of remaining inhibitor was determined by LC/MS/MS. The stability is reported as a percentage of compound remaining after 30 min in these conditions.
(§4) Mass spectrometry analyses were performed using a Waters Quattro Premier triple quadrupole tandem mass spectrometer (Micromass, Manchester, UK) interfaced to an electrospray ionization (ESI) source. The MS was coupled with a Waters Acquity UPLC (Waters, Milford, MA, USA). A Varian Pursuit5 C18 RP HPLC column (150 mm × 2.1 mm, particle size 5 μm) was used to separate the analytes. […] The source and the desolvation temperatures were set at 120 and 300°C, respectively. […] Dwell time was set to 0.1 s.

Microsomal stability [5] = type: in vitro ADME, horse; conditions: for Stability (% without microsomes) Horse liver microsomes NADPH + / Stability (% without microsomes) Horse liver microsomes NADPH –: 1 μM inhibitor, microsomes 1 mg/mL, 37°C, 30 min, compound remaining, average ± SD (n = 3); for Stability (% without microsomes) Horse liver microsomes NADPH +: with NADPH; for metabolism in horse liver microsomes (in words): in the presence of NADPH
Description: as §3, §4

[6] = liver cytosol, [3H]t-DPPO ([S]final = 5 μM) as substrate, read-out: IC50 (nM) Pig
[7] = [3H]t-DPPO ([S]final = 5 μM) as substrate, read-out: IC50 (nM) Sheep

Chain of sEH activity from liver cytosol of Sheep (A0ACI6PZ20 entry or part of it): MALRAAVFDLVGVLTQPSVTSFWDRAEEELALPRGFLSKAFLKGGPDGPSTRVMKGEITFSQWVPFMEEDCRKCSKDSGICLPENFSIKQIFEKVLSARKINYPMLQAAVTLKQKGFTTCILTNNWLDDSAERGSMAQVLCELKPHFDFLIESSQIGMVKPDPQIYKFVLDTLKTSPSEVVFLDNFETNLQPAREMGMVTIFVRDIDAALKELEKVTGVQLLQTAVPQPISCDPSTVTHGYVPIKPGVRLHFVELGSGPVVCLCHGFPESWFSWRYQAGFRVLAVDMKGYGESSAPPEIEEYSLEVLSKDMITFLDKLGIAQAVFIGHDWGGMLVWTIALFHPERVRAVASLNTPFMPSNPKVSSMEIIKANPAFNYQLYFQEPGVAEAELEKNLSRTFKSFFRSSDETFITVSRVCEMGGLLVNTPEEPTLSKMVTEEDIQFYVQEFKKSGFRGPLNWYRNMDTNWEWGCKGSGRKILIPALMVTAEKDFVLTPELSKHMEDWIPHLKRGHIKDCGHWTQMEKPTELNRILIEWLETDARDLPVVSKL

SMILES | IC50 [1, 6] | IC50 [2, 7] | IC50 [3] | Stability (% without microsomes) Cat liver microsomes NADPH + (Microsomal stability [4]) | Stability (% without microsomes) Cat liver microsomes NADPH – (Microsomal stability [4]) | metabolism in cat liver microsomes (in words) (Microsomal stability [4]) | Stability (% without microsomes) Horse liver microsomes NADPH + (Microsomal stability [5]) | metabolism in horse liver microsomes (in words) (Microsomal stability [5]) | IC50 [1] | IC50 ([2]; read-out: IC50 (nM) Sheep, [3H]t-DPPO ([S]final = 5 μM) as substrate) | Stability (% without microsomes) Horse liver microsomes NADPH – (Microsomal stability [5]) | stability in cat liver microsomes (in words) (Microsomal stability [4]; in the absence of NADPH) | stability in horse liver microsomes (in words) (Microsomal stability [5]; in the absence of NADPH)
O=C(NCCCCOc1ccc(F)cc1)NC12CC3CC(CC(C3)C1)C2 [1,707] | 6 nM | 2 nM | 2 nM | 5 ± 1% | 101 ± 14% | metabolized rapidly | 1.6 ± 0.2% | metabolized rapidly | – | – | – | – | –
O=C(Nc1ccc(OC(F)(F)F)cc1)N[C@H]1CC[C@H](Oc2ccc(C(=O)O)cc2)CC1 [1,728, trans-4-{4-[3-(4-trifluoromethoxy-phenyl)-ureido]-cyclohexyloxy}-benzoic acid] | – | – | 5 nM | 101 ± 3% | 103 ± 8% | most stable | 89 ± 3% | most stable | 9 nM | 6 nM | 108 ± 10% | – | –
N#CNC(=O)CCCCCCCCCCCNC(=O)NC12CC3CC(CC(C3)C1)C2 [1,845] | 81 nM | 7 nM | 34 nM | 9 ± 2% | 5 ± 1% | – | 28 ± 9% | further metabolized | – | – | 67 ± 3% | not stable | not stable
